Experiments:
MDA-MB-231 xenografts = experiment: MDA-MB-231 breast cancer xenograft; format: in vivo, mouse; conditions: nude mice, 40 mg/kg oral, twice a week, 4 weeks
Protocol: (§1) Mahlavu cells (10 × 10^6 cells/mouse) prepared in 150 μL of DMEM were injected subcutaneously to the flank of 6–8 weeks old male athymic nude mice, while MDA-MB-231 cells (2 × 10^6cells/mouse) in 1:1 DMEM and matrigel were injected into mammary fat pad (MFP) of 6–8 weeks old female athymic nude mice. Tumor volume and mouse weight were measured twice a week using calipers. When the tumor volume reached ∼150 mm^3, xenografts were randomized into groups (6 mice per group), and the mice were administered subsequently with 11 or 85 (40 mg/kg in 0.5% hydroxypropyl methylcellulose plus 1% Tween 80) or vehicle by gavage feeding (3–4 days/week) for 4 weeks. The mice were sacrificed 30 days after initiation of the compound treatment and tumors were collected. Two-way ANOVA was performed for statistical significance by GraphPad Prism. All of the mice were maintained under a temperature-controlled environment with a 12 h light/dark cycle and received a standard diet and water ad libitum.

[1] = tested on: hepatocellular carcinoma and breast cancer cell lines; experiment: SRB cytotoxicity, cell line panel; format: cell-based; conditions: Homo sapiens, range over hepatocellular carcinoma and breast cancer cell lines
Protocol: (§2) Mahlavu, FOCUS, SNU475 (1000 cell/well in 150 μL/well); Huh7, MCF7 (2500 cell/well in 150 μL/well); HepG2, Hep3B, SKBR3 (3000 cell/well in 150 μL/well); PLC-PRF-5, Hep40 (5000 cell/well in 150 μL/well); MDA-MB-231, MDA-MB-468, MCF10A (6000 cell/well in 150 μL/well); and ZR-75 (7500 cell/well in 150 μL/well) were cultured in 96-well plates and were inoculated in an incubator for 24 hours. The compounds were dissolved in dimethyl sulfoxide (DMSO) (Sigma, St Louis, MO) as a 20 mM stock solution. The treatment of cells with the compounds was done in a concentration range starting from 40 to 2.5 μM. The compounds which were below 2.5 μM were tested in a concentration range from 2.5 to 0.15 μM. End of the 72h compound treatment, the cells were fixed using 10% (v/v) trichloroacetic acid (MERCK) for an hour and washed with ddH2O, and left for air-drying. The fixed plates were stained with 50 μL of sulforhodamine B (SRB) solution (Sigma) at RT for 10 min. To remove unbound SRB dye, acetic acid was used to wash cells three times and left for drying. The protein-bound SRB was solubilized with 10 mM Tris-base (Sigma) and their absorbance was measured with a 96-well plate reader at 515 nm wavelength (ELx800, Biotek). The IC50 values of compounds were calculated in comparison with control group DMSO. Data with R^2 values larger than 0.9 are considered significant.

PARP = PARP cleavage western blotting; format: cell-based, human; conditions: 5 μM, 48 h; MCF7, MDA-MB-231, Mahlavu; except for 11 treated MCF7 and Huh7 cells
Protocol: Cells were treated for 5 μM compounds 11 and 85 or control (DMSO). The treated cells were collected with a scraper at end of 48 h incubation and lysates were prepared. Protein concentration was calculated with a BCA assay. The protein levels were analyzed using protein electrophoresis according to the manufacturer’s protocol for near-infrared (NIR) Western Blot analysis (Mini-PROTEAN Tetra Cell Systems, Bio-Rad). The samples (40 μg /well) were loaded onto TGX precast gels, and protein transfer from gel to an LF-PVDF membrane was done using Trans-Blot Turbo System (Bio-Rad). Primary antibodies (PARP, CST, #9532S) and Calnexin (CST, #2679) and secondary antibodies IRDye 680RD Goat Anti Rabbit (Li-Cor, # 92668071) and IRDye- 800CW Goat Anti Rabbit (Licor, # 926e32211) were used for western blotting, and the proteins were monitored in fluorescence system using Odyssey CLx- LICOR imaging system.[32]

Mahlavu xenografts = experiment: Mahlavu hepatocellular carcinoma xenograft; format: in vivo; conditions: 40 mg/kg oral; for reduction in tumor volume: Mahlavu xenografts, nude mice, twice a week, 4 weeks; for Tolerability of the administered dose: in all studies (Mahlavu and MDA-MB-231 xenografts), no significant bodyweight loss, toxic effects or mortality
Protocol: as §1

MCF10A = experiment: SRB cytotoxicity assay, immortalized normal breast epithelial cells; format: cell-based; conditions: Homo sapiens, MCF-10A, 72 h treatment, non-tumorigenic immortalized breast epithelial cells
Protocol: HepG2, FOCUS, Hep3B, Mahlavu, Huh7, Hep40, and PLC-PRF-5 hepatocellular carcinoma cells; MCF-7, MDA-MB-231, MDA-MB-468, SKBR3, and ZR-75 breast cancer cells; and normal-like epithelial MCF-10A breast cells were cultured in low-glucose Dulbecco’s modified Eagle’s medium (DMEM) (Biological Industries-BI) supplemented with 10% fetal bovine serum (FBS) (Gibco/Thermo Fisher Scientific), 2 mM L-Glutamine (Gibco/Thermo Fisher Scientific), 100 Units/mL Penicillin/Streptomycin, and 0.1 mM non-essential amino acid (Gibco/Thermo Fisher Scientific). […]
Mahlavu, FOCUS, SNU475 (1000 cell/well in 150 μL/well); Huh7, MCF7 (2500 cell/well in 150 μL/well); HepG2, Hep3B, SKBR3 (3000 cell/well in 150 μL/well); PLC-PRF-5, Hep40 (5000 cell/well in 150 μL/well); MDA-MB-231, MDA-MB-468, MCF10A (6000 cell/well in 150 μL/well); and ZR-75 (7500 cell/well in 150 μL/well) were cultured in 96-well plates and were inoculated in an incubator for 24 hours. […] The protein-bound SRB was solubilized with 10 mM Tris-base (Sigma) and their absorbance was measured with a 96-well plate reader at 515 nm wavelength (ELx800, Biotek). The IC50 values of compounds were calculated in comparison with control group DMSO. […]

Hep3B = experiment: SRB cytotoxicity assay; format: cell-based; conditions: Homo sapiens, 72 h treatment
Protocol: (§3) HepG2, FOCUS, Hep3B, Mahlavu, Huh7, Hep40, and PLC-PRF-5 hepatocellular carcinoma cells; MCF-7, MDA-MB-231, MDA-MB-468, SKBR3, and ZR-75 breast cancer cells; and normal-like epithelial MCF-10A breast cells were cultured in low-glucose Dulbecco’s modified Eagle’s medium (DMEM) (Biological Industries-BI) supplemented with 10% fetal bovine serum (FBS) (Gibco/Thermo Fisher Scientific), 2 mM L-Glutamine (Gibco/Thermo Fisher Scientific), 100 Units/mL Penicillin/Streptomycin, and 0.1 mM non-essential amino acid (Gibco/Thermo Fisher Scientific). SNU475 hepatocellular carcinoma cells were maintained in RPMI (Biological Industries-BI) supplemented with 10% fetal bovine serum (FBS) (Gibco/Thermo Fisher Scientific), L-Glutamine (Gibco/Thermo Fisher Scientific), and 100 Units/mL Penicillin/Streptomycin, while ZR-75 breast cancer cells were cultured RPMI (Biological Industries-BI) supplemented with 10% fetal bovine serum (FBS) (Gibco/Thermo Fisher Scientific), 1× sodium pyruvate, and %4.5 glucose. Normal-like MCF-10A breast cells were sustained in DMEM/HAM’S F12 (Hyclone) supplemented with 10% fetal bovine serum (FBS) (Gibco/Thermo Fisher Scientific), EGF (20 ng/mL), Hydrocortisone ([…]), cholera toxin (100 ng/mL), insulin (10 μg/mL), and 100 Units/mL Penicillin/Streptomycin. The cells were cultivated at 37 °C in a humidified incubator under 5% CO2.
as §2

FOCUS = experiment: SRB cytotoxicity assay; format: cell-based; conditions: Homo sapiens, 72 h treatment
Protocol: as §3, §2

SKBR3 = experiment: SRB cytotoxicity assay; format: cell-based; conditions: Homo sapiens, SK-BR-3, 72 h treatment
Protocol: as §3, §2

ZR75 = experiment: SRB cytotoxicity assay; format: cell-based; conditions: Homo sapiens, 72 h treatment
Protocol: as §3, §2

SNU475 = experiment: SRB cytotoxicity assay; format: cell-based; conditions: Homo sapiens, SNU-475, 72 h treatment
Protocol: as §3, §2

PLC-PRF-5 = experiment: SRB cytotoxicity assay; format: cell-based; conditions: Homo sapiens, 72 h treatment
Protocol: as §3, §2

HepG2 = experiment: SRB cytotoxicity assay; format: cell-based; conditions: Homo sapiens, 72 h treatment
Protocol: as §3, §2

MDA-MB468 = experiment: SRB cytotoxicity assay; format: cell-based; conditions: Homo sapiens, MDA-MB-468, 72 h treatment
Protocol: as §3, §2

MDA-MB231 = experiment: SRB cytotoxicity assay; format: cell-based; conditions: Homo sapiens, MDA-MB-231, 72 h treatment
Protocol: as §3, §2

Hep40 = experiment: SRB cytotoxicity assay; format: cell-based; conditions: Homo sapiens, 72 h treatment
Protocol: as §3, §2

Row | Structure (SMILES) | decrease in tumor volumes as compared to the control group (MDA-MB-231 xenografts) [%] | IC50 [1] [nM] | PARP cleavage (PARP) | reduction in tumor volume (Mahlavu xenografts) [%] | Tolerability of the administered dose (Mahlavu xenografts) | IC50 (MCF10A) [nM] | IC50 (Hep3B) [nM] | IC50 (FOCUS) [nM] | IC50 (SKBR3) [nM] | IC50 (ZR75) [nM] | IC50 (SNU475) [nM] | IC50 (PLC-PRF-5) [nM] | IC50 (HepG2) [nM] | IC50 (MDA-MB468) [nM] | IC50 (MDA-MB231) [nM] | IC50 (Hep40) [nM]
1 | Cc1ccccc1COc1ccc(-c2noc(C)c2-c2ccc(Cl)cc2)cc1 [compound 11, 4-(4-Chlorophenyl)-5-methyl-3-(4-((2-methylbenzyl)oxy)phenyl)isoxazole] | ~50 | 700 to 9500 | increase in PARP cleavage | 85 | well tolerated | 12100 | 3000 | 2100 | 3500 | 7600 | 1700 | 9500 | 2100 | 2800 | 2000 | 8600
2 | Cc1ccccc1COc1ccc(-c2ccnn2-c2ccc(Cl)cc2)cc1 [compound 85, 1-(4-Chlorophenyl)-5-(4-((2-methylbenzyl)oxy)phenyl)-1H-pyrazole] | ~50 | 700 to 9500 | increase in PARP cleavage | 40 | well tolerated | 7600 | 7900 | 2400 | 1800 | 5500 | 1500 | 6500 | 1400 | 1000 | 900 | 5200

Source: publication PMC9583322, “Vicinal Diaryl-Substituted Isoxazole and Pyrazole Derivatives with In Vitro Growth Inhibitory and In Vivo Antitumor Activity” (ACS Omega, 2022)
